Series [1] relates to TLR7/MyD88/NF-кB and MAPK pathways in BMDCs. It counts as cell-based, ICR mice.
The next series is described as follows: in vitro. The settings on record: chicken.

Structures are written as SMILES.

As to `CC(C)Cn1cnc2c(N)nc3ccccc3c21` [IMQ, imiquimod], in series [1], the “protein expression of TLR7 and MyD88 compared with un-treated BMDCs” value was “induced the high protein expression of TLR7 (P < 0.001) and MyD88 (P < 0.001)”. Besides, in the series “in vitro”, the hemolysis was approximately 37.5%.

The record behind these values is publication PMC11876772 (Materials Today Bio, 2025).
